Measurements taken from patent US11299518B2, “Fusion respiratory syncytial virus inhibitors and use thereof” (priority 2016, dated 2022).
Where two headings read alike, the source gives them in different places. Bridge positions count the residues as written; N and C are the ends. Square brackets hold non-standard residues; d marks the D form. Peptide text beside a SMILES is read from it. R8 = C=CCCCCCC[C@@](C)(N)C(=O)O; R5 = C=CCCC[C@@](C)(N)C(=O)O; S5 = C=CCCC[C@](C)(N)C(=O)O

Tests used:
bRSV = conditions: literature; cited from earlier work
hRSV = conditions: literature; cited from earlier work
[1] = test system: 5HB, a recombinant 5 helix bundle protein containing 3 HR1 domains covalently attached to 2 HR2 domains; conditions: 50 nM 5HB, 2 nM FITC-T108
Protocol: The fluorescence polarization assay was performed in 384-well plates using a Spectramax Paradigm (Molecular devices), using an excitation and emission wavelength of 485 nm and 535 nm, respectively. The acquisition time was of 700 ms and the read height was of 1 mm.

RSV-mCherry = type: cell-based, HRSV
Protocol: The inhibitory activity of the peptides of the invention was assessed in HEp-2 cells as described below:
A mCherry-expressing virus recently developed (Rameix-Welti et al., 2014, Nat. Commun., 5:5104) was used to avoid the cumbersome manipulations required with the GFP-expressing virus.
HEp-2 cells were seeded at 5×10^4 cells per well in 96 wells plate the day before the infection. Peptides were 2-fold serially diluted in DMSO (11 dilutions), then further diluted in MEM medium and pre-incubated for 15-20 minutes with 0.2 MOI of RSV-mCherry (Rameix-Welti et al., 2014, supra). Following the washing of Hep-2 cells with MEM without phenol red medium, the cells were incubated with the virus/peptide mixtures for a period of 1 h30-2 h. The cells were washed and further incubated in MEM media containing fetal bovine serum and the same concentration of peptide that was used during the infection step. Plates were incubated 48 h at 37° C. and the mCherry fluorescence was measured using a spectrofluorometer (Tecan infinite M200PRO) with excitation and emission wavelengths of 580 and 620 nm, respectively (expressed in relative fluorescence units RFU). Non-infected HEp-2 cells were used as standards for fluorescence background levels. Each experiment was performed in duplicate and repeated at least twice.

[2] = CD spectroscopy, percentage of helicity; type: physicochemical; conditions: CD at 222 nm, 10 mM phosphate buffer pH 7.5, 50 μM peptide, 25° C.
Protocol: The secondary structure of the peptides was then characterized by circular dichroism (DC) as described below.
The circular dichroism spectra were acquired on a Jasco J-810 and on a Chirascan spectropolarimeter. The samples were prepared in 10 mM phosphate buffer, pH 7.5, at a peptide concentration of 50 μM. Data were recorded at 25° C. by stepscan from 180 nm to 260 nm in a 0.1 cm pathlength quartz cell using 0.2 nm wavelength increments, 1 nm bandwidth and a response time of 0.5 sec. Each spectrum was an average of three measurements and was subtracted from buffer baseline. The data were converted to per residue molar ellipticity units [θ] (deg·cm2·dmol−1·residue−1) and smoothed using the Igor software. The percentage of helicity was calculated as it follows:
[formula] whereby CD222=molar ellipticity at 222 nm in [mdeg], N=number of amino acids in the peptide and C=peptide molar concentration [mol/l].

trypsin = assay: Proteolytic stability assay, trypsin; type: in vitro ADME; conditions: trypsin (isolated protease)
Protocol: (§1) The compounds according to the invention are tested for their stability in a proteolytic stability assay as described below which is an important parameter to assess for the development of peptide therapeutics. Peptides of the invention 4bb, 4ca, 4a and their unstapled comparative peptide 4, as well as both SAH-RSVFBD isomers were treated with chymotrypsin and trypsin, and analysed by LC/MS to quantify the reaction products over time.
(§2) In vitro proteolytic degradation was measured via LC-MS using an Agilent Infinity 1280 UHPLC system coupled to an Agilent quadruple-time-of-flight (QTOF) 6530 with an Agilent Jet Stream electrospray ionisation (AJS ESI) source (all Agilent Technologies, Waldbronn, Germany). 5 μl of digested sample were injected onto a C18 column (Zorbax Eclipse Plus RRHD, 1.8 μm, 2.1*100 mm, Agilent Technologies, Waldbronn, Germany) equilibrated with solvent A and eluted with a flow rate of 0.4 ml/min over a 5-95% gradient of solvent B in 5 minutes, followed by 1.5 minutes at 95% and 0.5 minutes post-time where solvent A was 95% water, 5% acetonitrile with 0.2% formic acid and solvent B was 5% water, 95% acetonitrile with 0.2% formic acid. The AJS ESI source was operated with a capillary voltage of 4000V and a nozzle voltage of 600V with a drying gas temperature of 325° C. and flow rate of 10 l/min, nebulising gas pressure of 20 psi, and a sheath gas temperature of 300° C. and flow rate of 11l/min. Mass spectra were acquired in the positive ion mode from 100-3200 m/z at a rate of 1 scan per second in extended dynamic range (2 GHz) mode. The fragmentor, skimmer and octopole Radio Frequency voltages were set to 200, 60 and 750 V respectively. Data were acquired and analysed with Agilent MassHunter Workstation (version B.05).
(§3) Peptide digestion was performed as it follows: 10 μl of peptide at 0.29 mM in 50/50 acetonitrile/water were dissolved in 990 μl 100 mM Tris-HCl, pH 8.0 with 10 mM CaCl2. Following measurement of the undigested (to) sample, 10 μl of chymotrypsin at 50 μg/ml in 100 mM Tris-HCl, pH 8.0 with 10 mM CaCl2 were added and the sample was vortexed and placed immediately in the autosampler, set to 25° C. Trypsin digestion was performed as with chymotrypsin except that the buffer was in 50 mM Tris-HCl, pH8. Chymotrypsin and trypsin were purchased from Thermo Fisher Scientific.
(§4) The level of intact peptide was quantified by serial injection over time. Integration of the intact peptide compound chromatogram was performed using the Agilent Molecular Feature Extraction (MFE) algorithm. A plot of the intact peptide MFE peak area over time gave an exponential decay curve, from which the half-life was determined using MatLab […].

chymotrypsin = target: T1, chymotrypsin (Bos taurus, UniProt P00766); assay: Proteolytic stability assay, chymotrypsin; type: in vitro ADME; conditions: chymotrypsin (isolated protease)
T1 construct: purchased Thermo Fisher Scientific
Protocol: as §1, §2, §3, §4

rHRSV-Luc = assay: In vivo rHRSV-Luc infection of mice, lung histological analysis; set-up: species or system BALB/c mice; conditions: intranasal peptide, day 7 pi
Protocol: The efficacy of peptides of the invention is tested in the following model of rHRSV infection.
Female BALB/c mice around 8 weeks of age are purchased. Mice are bred in a pathogen-free animal facility. For infection experiments, mice will be housed in cages inside stainless steel isolation cabinets that are ventilated under negative pressure with high-efficiency particulate air-filtered air. Female BALB/c mice (n=5 per group) are anesthetized by a mixture of ketamine and xylazine (1 and 0.2 mg per mouse, respectively) and infected by intranasal inoculation with 50 μl of PBS containing 6.10^4 p.f.u. of rHRSV-Luc (Luc-encoding virus that enables direct visualization of RSV replication in living mice). Peptides of the invention are administered intranasally to the mice infected or uninfected with RSV-Luc, on day 0, 2 and 4 post-infection. Body weight and temperature is monitored at days 3-10. In vivo imaging is performed each two days on anesthetized mice. At day 8, mice are killed and the safety of the treatment is investigated by a complete toxicopathological evaluation of treated mice (histologic analysis of lungs with sections of each lobe, turbinates, heart, spleen, liver, kidneys).
At day 7 pi, a time corresponding to the end of the infection in mice, the animals were sacrificed and the lungs were collected in order to perform a histological analysis. […]

circular dichroism = conditions: 10 mM phosphate; pH 7.5; 25 °C; 50 uM
[3] = pH 8, 50 mM Tris-HCl pH8, 25° C., LC-MS, read-out: t1/2 (min) Trypsin
[4] = 100 mM Tris-HCl pH 8.0, 10 mM CaCl2, 25° C., LC-MS, read-out: t1/2 (min) Chymotrypsin

## O=c1n(Cc2nc3ccccc3n2CCCCO)c2cnccc2n1C1CC1 [BMS-433771]
bRSV
  activity against bRSV: active
hRSV
  activity against hRSV: active

## CC[C@H](C)[C@@H]1NC(=O)[C@H](Cc2ccccc2)NC(=O)[C@@](C)(NC(=O)[C@H](CC(C)C)NC(=O)[C@H](CO)NC(=O)[C@H](CCC(N)=O)NC(=O)[C@H](CCC(=O)O)NC(C)=O)CCCC=CCCC[C@@](C)(C(=O)N[C@@H](CO)C(=O)N[C@@H](CC(=O)O)C(=O)N[C@@H](CCC(=O)O)C(=O)N[C@@H](CC(C)C)C(=O)N[C@@H](CC(C)C)C(=O)N[C@@H](Cc2c[nH]cn2)C(=O)N[C@@H](CC(N)=O)C(=O)N[C@H](C(N)=O)C(C)C)NC(=O)[C@H](CCCNC(=N)N)NC1=O [Peptide 3a, EQSL X504 FIR X508 SDELLHNV, reference compound] (Ac-EQSL[S5]FIR[S5]SDELLHNV-NH2; staple 5-9)
[1]
  block of the increase of FP / activity in the biochemical 5HB assay: reasonable activity
RSV-mCherry; HEp-2 cells, 0.2 MOI RSV-mCherry, 48 h
  EC50: > 25 µM
RSV-mCherry; RSV-mCherry
  inhibitory activity in HEp-2 cells: inactive
[2]
  % helicity: 33.9%

## CC[C@H](C)[C@H](NC(=O)[C@H](CCCCN)NC(=O)[C@H](CCC(=O)O)NC(C)=O)C(=O)N[C@@H](CC(N)=O)C(=O)N[C@@H](CCC(N)=O)C(=O)N[C@@H](CO)C(=O)N[C@@H](CC(C)C)C(=O)N[C@@]1(C)CCCC=CCCC[C@@](C)(C(=O)N[C@@H](CO)C(=O)N[C@@H](CC(=O)O)C(=O)N[C@@]2(C)CCCC=CCCC[C@@](C)(C(=O)N[C@H](C(N)=O)C(C)C)NC(=O)[C@H](Cc3c[nH]cn3)NC(=O)[C@H](CC(C)C)NC(=O)[C@H](CC(C)C)NC2=O)NC(=O)[C@H](CCCNC(=N)N)NC(=O)[C@H]([C@@H](C)CC)NC(=O)[C@H](Cc2ccccc2)NC1=O [Peptide 4a, EKINQSL Xaa8 FIR Xaa12 SD Xaa15 LLH Xaa19 V] (Ac-EKINQSL[S5]FIR[S5]SD[S5]LLH[S5]V-NH2; staple 8-12, 15-19)
trypsin; [3]
  half-life at 2.9 µM: 76 min
chymotrypsin; [4]
  half-life at 2.9 µM: 4480 min
[2]
  % helicity: 23.5%

## CC[C@H](C)[C@H](NC(=O)[C@H](CCCCN)NC(=O)[C@H](CCC(=O)O)NC(C)=O)C(=O)N[C@@]1(C)CCCC=CCCC[C@@](C)(C(=O)N[C@@H](Cc2ccccc2)C(=O)N[C@H](C(=O)N[C@@]2(C)CCCC=CCCC[C@@](C)(C(=O)N[C@@H](CC(C)C)C(=O)N[C@@H](CC(C)C)C(=O)N[C@@H](Cc3c[nH]cn3)C(=O)N[C@@H](CC(N)=O)C(=O)N[C@H](C(N)=O)C(C)C)NC(=O)[C@H](CC(=O)O)NC(=O)[C@H](CO)NC(=O)[C@H](CCCCN)NC2=O)[C@@H](C)CC)NC(=O)[C@H](CC(C)C)NC(=O)[C@H](CO)NC(=O)[C@H](CCC(N)=O)NC1=O [Peptide 4bb, EKI Xaa4 QSL Xaa8 FI Xaa11 KSD Xaa15 LLHNV] (Ac-EKI[S5]QSL[S5]FI[S5]KSD[S5]LLHNV-NH2; staple 4-8, 11-15)
trypsin; [3]
  half-life at 2.9 µM: 20 min
chymotrypsin; [4]
  half-life at 2.9 µM: 3010 min
[2]
  % helicity: 52.9%

## CC[C@H](C)[C@@H]1NC(=O)[C@H](Cc2ccccc2)NC(=O)[C@@](C)(NC(=O)[C@H](CC(C)C)NC(=O)[C@H](CO)NC(=O)[C@]2(C)CCCC=CCCC[C@@](C)(NC(=O)[C@H](CCC(=O)O)NC(C)=O)C(=O)N[C@@H]([C@@H](C)CC)C(=O)N[C@@H](CC(N)=O)C(=O)N2)CCCC=CCCC[C@@](C)(C(=O)N[C@@H](CO)C(=O)N[C@@H](CC(=O)O)C(=O)N[C@@H](CCC(=O)O)C(=O)N[C@@H](CC(C)C)C(=O)N[C@@H](CC(C)C)C(=O)N[C@@H](Cc2c[nH]cn2)C(=O)N[C@@H](CC(N)=O)C(=O)N[C@H](C(N)=O)C(C)C)NC(=O)[C@H](CCCNC(=N)N)NC1=O [Peptide 4ca] (Ac-E[R5]IN[S5]SL[S5]FIR[S5]SDELLHNV-NH2; staple 2-5, 8-12)
rHRSV-Luc
  histological changes in the lung parenchyma, mock versus peptide inoculated animals (toxicity): No histological changes were noticed
  interstitial pneumonia after infection by RSV, lung histology: no interstitial pneumonia was observed
trypsin; pH 8, b240, read-out: half-life against trypsin (converted)
  half-life at 2.9 µM: 2280 min
chymotrypsin; pH 8, b240, read-out: half-life against chymotrypsin (converted)
  half-life at 2.9 µM: 10800 min
[2]
  % helicity: >100%

## CC[C@H](C)[C@H](NC(=O)[C@H](CCCCN)NC(=O)[C@H](CCC(=O)O)NC(C)=O)C(=O)N[C@@H](CC(N)=O)C(=O)N[C@@H](CCC(N)=O)C(=O)N[C@@H](CO)C(=O)N[C@@H](CC(C)C)C(=O)N[C@]1(C)CCCCCCC=CCCC[C@@](C)(C(=O)N[C@@H](CC(C)C)C(=O)N[C@@H](CC(C)C)C(=O)N[C@@H](Cc2c[nH]cn2)C(=O)N[C@@H](CC(N)=O)C(=O)N[C@H](C(N)=O)C(C)C)NC(=O)[C@H](CC(=O)O)NC(=O)[C@H](CO)NC(=O)[C@H](CCCCN)NC(=O)[C@H](CCCNC(=N)N)NC(=O)[C@H]([C@@H](C)CC)NC(=O)[C@H](Cc2ccccc2)NC1=O [Peptide 4e, EKINQSL 8504 FIRKSD X511 LLHNV, reference compound] (Ac-EKINQSL[R8]FIRKSD[S5]LLHNV-NH2; staple 8-15)
[1]
  block of the increase of FP / activity in the biochemical 5HB assay: reasonable activity
Circular dichroism
  helicity: 23.3%
[2]
  % helicity: 23.3%

## Cc1ccc(CCCO)c(NCc2ccc3nc(NCCCN4CCOCC4)n(Cc4nc(C)ccc4O)c3c2)c1 [TMC-353121]
bRSV
  activity against bRSV: active
hRSV
  activity against hRSV: active
